In the supplement of paper PMC10307832:

Columns and labels:
Assay in all cases: relative viability (nuclei count vs DMSO), 5 days (fraction); higher = more cells survive
[1] = compound: Cc1ccc2nc(NCCN)c3ncc(C)n3c2c1 + Cc1nc(NC(=O)N2CCC[C@H]2C(N)=O)sc1-c1ccnc(C(C)(C)C(F)(F)F)c1 [Alpelisib] (partner 2 µM)
In short: (§1)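 A single step with final 0.05% Triton X-100, 1% formaldehyde and 1 ug/ml Hoechst fixed the cells and stained nuclei 5 days after treatment. Lung cancer cell lines in 1536-well plates had been treated by pin tool the day after seeding with one drug alone or a fixed anchor-drug dose plus five library-drug doses (not always all listed) in √10 steps, and nuclei were counted on 4× images. Relative viability is the ratio of nuclei in treated wells to nuclei in vehicle wells, taken as the median of duplicate plates.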

[2] = compound: Cc1ccc2nc(NCCN)c3ncc(C)n3c2c1 + O=C(CCCCCCC(=O)Nc1ccccc1)NO [Vorinostat] (partner 1 µM)
In short: as §1

Salubrinal + Linsitinib = compound: O=C(/C=C/c1ccccc1)NC(NC(=S)Nc1cccc2cccnc12)C(Cl)(Cl)Cl [Salubrinal] + C[C@]1(O)C[C@@H](c2nc(-c3ccc4ccc(-c5ccccc5)nc4c3)c3c(N)nccn32)C1 [Linsitinib] (partner 1 µM)
In short: as §1

Salubrinal + Dasatinib = compound: O=C(/C=C/c1ccccc1)NC(NC(=S)Nc1cccc2cccnc12)C(Cl)(Cl)Cl [Salubrinal] + Cc1nc(Nc2ncc(C(=O)Nc3c(C)cccc3Cl)s2)cc(N2CCN(CCO)CC2)n1 [Dasatinib] (partner 0.075 µM)
In short: as §1

## UMC-11
[1]; first compound 0.04 µM
  relative viability: 0.946
[1]; first compound 0.1265 µM
  relative viability: 0.906
[1]; first compound 0.4 µM
  relative viability: 1.03
[1]; first compound 1.265 µM
  relative viability: 0.995
[1]; first compound 4 µM
  relative viability: 0.817
[2]; first compound 0.04 µM
  relative viability: 0.421
[2]; first compound 0.1265 µM
  relative viability: 0.344
[2]; first compound 0.4 µM
  relative viability: 0.372
[2]; first compound 1.265 µM
  relative viability: 0.371
[2]; first compound 4 µM
  relative viability: 0.357
Salubrinal + Linsitinib; first compound 0.08 µM
  relative viability: 1.25
Salubrinal + Linsitinib; first compound 0.253 µM
  relative viability: 0.807
Salubrinal + Linsitinib; first compound 0.8 µM
  relative viability: 1.21
Salubrinal + Linsitinib; first compound 2.53 µM
  relative viability: 0.998
Salubrinal + Linsitinib; first compound 8 µM
  relative viability: 0.955
Salubrinal + Dasatinib; first compound 0.08 µM
  relative viability: 0.654
Salubrinal + Dasatinib; first compound 0.253 µM
  relative viability: 0.306
Salubrinal + Dasatinib; first compound 0.8 µM
  relative viability: 0.621
Salubrinal + Dasatinib; first compound 2.53 µM
  relative viability: 0.458
Salubrinal + Dasatinib; first compound 8 µM
  relative viability: 0.471
